The text below walks through data of patent US20250041245A1, “ENDOXIFEN FOR TREATMENT OF CANCERS” (Atossa Therapeutics, Inc., priority 2021, published 2025).

What all share (format): cell-based, human
Experiment [1] deals with patient-derived tumor organoids (PDTOs), thyroid cancer. The experiment can be described thus: Endoxifen screen in PDTOs: thyroid cancer. Also noted: key to Personalization Category: Personalization categories range from High, Good, Moderate, Low, to None; Personalization categories range from High, Good, Moderate, Low, to None; Personalization categories range from High, Good, Moderate, Low, to None; Personalization categories range from High, Good, Moderate, Low, to None; Personalization categories range from High, Good, Moderate, Low, to None; key to Sensitivity Category: Sensitivity categories range from High, Good, Moderate, Low, to None; Sensitivity categories range from High, Good, Moderate, Low, to None; Sensitivity categories range from High, Good, Moderate, Low, to None; Sensitivity categories range from High, Good, Moderate, Low, to None; Sensitivity categories range from High, Good, Moderate, Low, to None; AUC: unit not given beside the values. Here is the method: (§1) This example describes screening endoxifen in patient-derived tumor organoids. Endoxifen was tested as a single agent on tumor organoids derived from patients diagnosed with various cancer types using a personalized cancer treatment screening assay (PARIS© Test, SEngine Precision Medicine). The screen utilized patient-derived tumor organoids (PDTOs) along with high-throughput drug screening and machine learning-guided data analysis to quantify the efficacy of endoxifen against samples derived from individual patients diagnosed with various cancer types. PDTOs are self-organizing, three-dimensional organoid structures that recapitulate structural, functional, and genomic aspects of in vivo organs. The PDTOs were grown in culture from patient tumor biopsy samples.
(§2) Fresh patient biopsy samples received following surgery were cleaned and purified. Immune cells (e.g., lymphocytes, blood cells), cancer-associated fibroblasts, and other non-tumor cells were removed to establish pure PDTOs for endoxifen testing. The tumor organoids were grown and expanded by supplying organ- and patient-specific growth factors and nutrients. The PDTOs were treated with increasing concentrations of endoxifen ranging from about 30 nM to about 10 μM, and the drug response was measured using a luminescence readout. A lower luminescence was indicative of a stronger drug response.
(§3) The results were analyzed using a “SEngine Precision Medicine” (SPM) scoring system to assess the sensitivity and personalization of each tumor organoid to endoxifen. The SPM score correlates with clinical outcomes, such that a higher SPM score for a specific PDTO-drug combination predicts a more favorable clinical outcome following treatment of the corresponding patient with the tested drug.
(§4) This example describes testing endoxifen efficacy against 17 distinct cancer types in patient-derived tumor organoids (PDTOs). Screening of PDTOs was performed as described in EXAMPLE 1. For each PDTO sample, the drug response was measured using a luminescent readout over a range of endoxifen concentrations. The drug response was evaluated based on the area under the fitted dose response curve (AUC) and the SPM scoring system. AUC values were normalized for each PDTO. Briefly, data points at each drug concentration were first normalized to a negative control, then a dose response drug curve was approximated using a four-parameter logistic model fitted to the normalized data points. The area under the curve was calculated from the normalized curve. Normalization allowed for comparison of AUC values between patient samples. The SPM scores were based on machine learning models that incorporate values for how well the drug kill patient cells (sensitivity metric), the relative drug responses of a patient to all other patients in a sample database (personalization metric), and knowledge of clinical outcomes for patients that had been evaluated with the personalized cancer screening assay (PARIS® Test, SEngine Precision Medicine).
(§5) The SPM scoring system evaluated whether a PDTO was unresponsive or responsive to endoxifen and the degree of drug response for PDTOs that were responsive to endoxifen. […] The sensitivity category was determined from the sensitivity metric and is a measure of overall cell death of a patient's cells in response to endoxifen at six concentrations. […]

Experiment [2] concerns patient-derived tumor organoids (PDTOs), gastric cancer. The experiment can be described thus: Endoxifen screen in PDTOs: gastric cancer. Also noted: key to Personalization Category: Personalization categories range from High, Good, Moderate, Low, to None; Personalization categories range from High, Good, Moderate, Low, to None; Personalization categories range from High, Good, Moderate, Low, to None; Personalization categories range from High, Good, Moderate, Low, to None; Personalization categories range from High, Good, Moderate, Low, to None; key to Sensitivity Category: Sensitivity categories range from High, Good, Moderate, Low, to None; Sensitivity categories range from High, Good, Moderate, Low, to None; Sensitivity categories range from High, Good, Moderate, Low, to None; Sensitivity categories range from High, Good, Moderate, Low, to None; Sensitivity categories range from High, Good, Moderate, Low, to None; AUC: unit not given beside the values. Particulars: each line one patient sample. As to the method: as §1, §2, §3, §4
The SPM scoring system evaluated whether a PDTO was unresponsive or responsive to endoxifen and the degree of drug response for PDTOs that were responsive to endoxifen. The SPM scoring system generated metrics an SPM score, predictive of clinical outcome, overall drug response (response category), drug sensitivity (sensitivity category), and drug personalization (personalization category). SPM scores ranged from 1-15, corresponding to the following drug response categories: no response (SPM 1-8), low response (SPM 9), moderate response (SPM 10-11), good response (SPM 12-13), and exceptional response (SPM 14-15). […] Moderate to good drug responses (SPM 10-13) may indicate that a drug has clinical relevance, possibly in combination with other drugs. The sensitivity category was determined from the sensitivity metric and is a measure of overall cell death of a patient's cells in response to endoxifen at six concentrations. […]

For experiment [3], the system named is patient-derived tumor organoids (PDTOs), esophageal adenocarcinoma. The experiment can be described thus: Endoxifen screen in PDTOs: esophageal adenocarcinoma. Also noted: key to Personalization Category: Personalization categories range from High, Good, Moderate, Low, to None; Personalization categories range from High, Good, Moderate, Low, to None; Personalization categories range from High, Good, Moderate, Low, to None; Personalization categories range from High, Good, Moderate, Low, to None; Personalization categories range from High, Good, Moderate, Low, to None; AUC: unit not given beside the values. As to the method:
as §1, §2
The results were analyzed using a “SEngine Precision Medicine” (SPM) scoring system to assess the sensitivity and personalization of each tumor organoid to endoxifen. […]
as §4, with “Screening of PDTOs was performed as described in EXAMPLE 1.” left out, “AUC values were normalized for each PDTO. Briefly, data points at each drug concentration were first normalized to a negative control, then a dose response drug curve was approximated using a four-parameter logistic model fitted to the normalized data points.” left out, “Normalization allowed for comparison of AUC values between patient samples.” left out
as §5

Where “and” joins values, the source holds several entries; their conditions need not be identical. Equal entries are not always repeated. Entries after “also recorded” stand apart in the source; their conditions may differ.

`CC/C(=C(\c1ccc(O)cc1)c1ccc(OCCNC)cc1)c1ccccc1` [Endoxifen, 4-hydroxy-N-desmethyltamoxifen]: the IC50 (usually the concentration that gives 50% inhibition) in experiment [1] (Homo sapiens, patient 4, four-parameter logistic fit) was 7.1 µM; in experiment [2] (four-parameter logistic fit), 6.55 µM and 6.73 µM and 2.45 µM and 4.14 µM and 2.89 µM and 4.86 µM; in experiment [3] (Homo sapiens, Patient 14, four-parameter logistic fit), 3.97 µM. Further, the “Personalization Category” value in experiment [1] (patient 4) is “None”; in experiment [2] it was “None and Low and High”; in experiment [3] (Patient 14), “Good”. The “Sensitivity Category” value is “None” in experiment [1] (patient 4); “Low and Moderate” in experiment [2]. Besides, the AUC was 0.9109 in experiment [1] (patient 4, normalized area under fitted dose response curve); 0.9503 and 0.8641 and 0.7529 and 0.8116 and 0.6723 and 0.8547 in experiment [2] (normalized area under fitted dose response curve); 0.7771 in experiment [3] (Patient 14, normalized area under fitted dose response curve). The “SPM Score” value is 1 in experiment [1] (patient 4, score range 1-15); 5 and 9 and 12 and 11 and 13 and 10 in experiment [2] (score range 1-15); 11 in experiment [3] (Patient 14, score range 1-15). In addition, the “Response Category” value in experiment [2] is reported as “None (no response (SPM 1-8)); also recorded: Low (low response (SPM 9)); also recorded: Good (good response (SPM 12-13)); also recorded: Moderate (moderate response (SPM 10-11))”.
